Biological target: factor Xa (Homo sapiens, UniProt P00742)
Test: Factor Xa inhibition (FXa-IC50)
Format: biochemical
Excerpt: The inhibition of factor Xa by the compounds according to the invention and the measurement of the anticoagulant and antithrombotic activity can be determined by conventional in-vitro or in-vivo methods. A suitable method is described, for example, by J. Hauptmann et al. in Thrombosis and Haemostasis 1990, 63, 220-223.
The inhibition of factor Xa can be measured, for example by the method of T. Hara et al. in Thromb. Haemostas. 1994, 71, 314-319.

Sequence of factor Xa (P00742 235-488 limits assumed): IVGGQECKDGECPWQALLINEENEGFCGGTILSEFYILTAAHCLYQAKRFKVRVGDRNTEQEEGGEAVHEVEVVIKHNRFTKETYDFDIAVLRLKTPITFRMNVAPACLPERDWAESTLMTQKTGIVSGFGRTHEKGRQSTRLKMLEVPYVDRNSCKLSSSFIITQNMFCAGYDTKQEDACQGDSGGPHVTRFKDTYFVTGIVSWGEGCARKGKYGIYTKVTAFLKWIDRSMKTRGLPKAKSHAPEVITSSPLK
Sequence of factor Xa (P00742 41-179 partner limits assumed): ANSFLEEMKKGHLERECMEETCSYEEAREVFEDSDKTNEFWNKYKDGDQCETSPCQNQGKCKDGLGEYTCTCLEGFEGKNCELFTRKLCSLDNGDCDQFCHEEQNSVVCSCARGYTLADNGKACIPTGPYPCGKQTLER

IC50: 2 nM
Structure (SMILES): CCOC(=O)O[C@@H]1C[C@H](C(=O)Nc2ccc(N3CCOCC3=O)cc2)N(C(=O)Nc2ccc(Cl)cc2)C1 [Compound A1, N-1-(4-chlorophenyl)-4-(ethoxycarbonyloxy)-N-2-[4-(3-oxomorpholin-4-yl)phenyl)-(2R,4R)-pyrrolidine-1,2-dicarboxamide]

From patent US20080081814A1, “Carbonyl Compounds Which Can be Used as Inhibitors of Coagulation Factor Xa” (priority 2004, published 2008)
